Measured values taken from patent US7312248B2, “Control of parasites in animals by the use of novel trifluoromethanesulfonanilide oxime ether derivatives” (Schering-Plough Animal Health Corporation, priority 2004, dated 2007).
Like-named read-outs stand apart in the source and are kept apart here.

System: cat flea (Ctenocephalides felis)
Test: whole plant or invertebrate
Assay type: in vivo
Conditions: for mortality at 1.26 µg/cm2 / mortality at 1.26 µg/cm2, 1.26 µg/cm2: Ctenocephalides felis
Method: b) Ctenocephalides felis Adulticide Assay: C. felis Single Dose Screen
Mortality of fleas was the primary endpoint in the assay. Fleas were considered dead if they didn't move or were on their sides and unable to walk or right themselves. […] The concentration chosen (1.26 μg/cm^2) was higher than that known to kill 90% of cat fleas (LC90) using the reference compound, permethrin.
The test species was the cat flea (Ctenocephalides felis). The strain used was obtained from external suppliers as pupae and held in the laboratory under testing conditions until the adults had emerged. Fifteen (15) fleas were used in a minimum of four replicates against a single concentration level (approximately 60 fleas). The insects were selected to be in the adult life stage, aged between 3 and 7 days post emergence.
The compounds to be tested were supplied as solids and were prepared in acetone as described below prior to testing. Samples were stored in a refrigerator (5±1° C.) unless otherwise specified.
During the mortality testing, the temperature was maintained at 25±1° C. Humidity was maintained at 75±5%. The base (area=159 mm^2) of a 100 mL glass Erlenmeyer (conical) flask provided the treatment surface. Flasks were pretreated with Coatasil™ glass treatment to maximise bio-availability of test compounds by preventing them from binding to glass the surface. The base of the 100 mL Erlenmeyer flask was treated with 0.5 mL of test sample in acetone and gently swirled. This volume was sufficient to cover the base of the flask. Flasks were left to dry for 24 hours before flea exposure.
Adult cat fleas were placed into a sorting chamber, which allowed fleas to jump into the Erlenmeyer flasks. Fifteen (15) adult cat fleas were collected in each flask. The top of the flasks were then covered in Parafilm™ and small holes were made to allow gas exchange. A 0.5 mL volume of acetone as a solvent control was applied to the base of an Erlenmeyer flask and the testing proceeded in the same manner described above. Cat fleas in the treatment containers were held under testing conditions for 8, 24 and/or 48 hours. Mortality was recorded at 8, 24, 8 and 24, or 24 and 48 hours. Pooled 8, 24, 8 and 24, and 24 and 48 hour mortality data were converted to percentages and are summarized by Tables 14, 14A and 14B, below.

[1] = 24 h, read-out: Ctenocephalides felis Mortality (%) 24 h
[2] = 24 h, read-out: C. felis Mortality (%) 24 h, 24 h, Laboratory 1 A data
[3] = 24 h, read-out: C. felis Mortality (%) 24 h, 24 h, Laboratory 2 B data
[4] = 48 h, read-out: C. felis Mortality (%) 48 h, 48 h, Laboratory 2 B data
[5] = 48 h, read-out: Ctenocephalides felis Mortality (%) 48 h
[6] = 8 h, read-out: C. felis Mortality (%) 8 h, 8 h, Laboratory 2 B data

Structure (SMILES) | mortality at 1.26 µg/cm2, 1.26 µg/cm2 [2] | other results
CCCC(=O)OCN(c1ccc(Cl)cc1/C(CC)=N/Oc1ccc(Cl)cc1)S(=O)(=O)C(F)(F)F [Compound 309] |  | mortality at 1.26 µg/cm2 (8 h, read-out: Ctenocephalides felis Mortality (%) 8 h): 3%; mortality at 1.26 µg/cm2 [1]: 86%
CC/C(=N\Oc1ccc(OC(F)(F)F)cc1)c1cc(Cl)ccc1NS(=O)(=O)C(F)(F)F [Compound 152] | 61% | 
CCC/C(=N\Oc1ccc(Cl)cc1)c1cc(Cl)ccc1NS(=O)(=O)C(F)(F)F [Compound 166, N-{4-chloro-2-[1-(4-chlorophenoxyimino)butyl]phenyl}trifluoromethanesulfonamide] | 17% | 
COCCON=C(c1ccccc1)c1cc(Cl)ccc1NS(=O)(=O)C(F)(F)F (racemic) [Compound 234, N-{4-chloro-[(2-methoxyethoxyimino)phenylmethyl]phenyl}trifluoromethanesulfonamide] |  | mortality at 1.26 µg/cm2, 1.26 µg/cm2 [3]: 64%; mortality at 1.26 µg/cm2, 1.26 µg/cm2 [4]: 100%
CSCO/N=C(\C)c1cc(Cl)ccc1NS(=O)(=O)C(F)(F)F [Compound 124] | 100% | 
CO/N=C(\C)c1cccc(OC)c1NS(=O)(=O)C(F)(F)F [Compound 40] | 45% | 
CC/C(=N\OCC1CCCCC1)c1cc(Cl)ccc1N(C)S(=O)(=O)C(F)(F)F [Compound 300] |  | mortality at 1.26 µg/cm2 [1]: 0%; mortality at 1.26 µg/cm2 [5]: 9%
CC/C(=N\Oc1ccc(C)cc1)c1cc(Cl)ccc1NS(=O)(=O)C(F)(F)F [Compound 142] | 72% | 
C/C(=N\Oc1ccccc1C)c1cc(Cl)ccc1NS(=O)(=O)C(F)(F)F [Compound 149] | 17% | 
CCOCN(c1ccc(Cl)cc1/C(CC)=N/OCC1CCCCC1)S(=O)(=O)C(F)(F)F [Compound 301] |  | mortality at 1.26 µg/cm2 [1]: 1%; mortality at 1.26 µg/cm2 [5]: 19%
CCO/N=C(\c1ccccc1)c1ccccc1NS(=O)(=O)C(F)(F)F [Compound 31] | 74% | 
C/C(=N\Oc1ccc(F)cc1)c1cc(Cl)ccc1N(COC(=O)C(C)(C)C)S(=O)(=O)C(F)(F)F [Compound 305] |  | mortality at 1.26 µg/cm2 [1]: 1%; mortality at 1.26 µg/cm2 [5]: 21%
C/C(=N\OC(C)c1ccc(Cl)cc1Cl)c1cc(Cl)ccc1NS(=O)(=O)C(F)(F)F (centres unmarked) [Compound 258] |  | mortality at 1.26 µg/cm2, 1.26 µg/cm2 [6]: 8%; mortality at 1.26 µg/cm2, 1.26 µg/cm2 [3]: 88%
O=S(=O)(Nc1ccc(Cl)cc1/C(=N/OC1CCCCC1)c1ccccc1)C(F)(F)F [Compound 179] | 12% | 
CC/C(=N\OC(C)c1ccc(Cl)cc1Cl)c1cc(Cl)ccc1NS(=O)(=O)C(F)(F)F (centres unmarked) [Compound 259] |  | mortality at 1.26 µg/cm2, 1.26 µg/cm2 [6]: 0%; mortality at 1.26 µg/cm2, 1.26 µg/cm2 [3]: 71%
O=S(=O)(Nc1ccc(Cl)cc1/C(=N/Oc1ccc(F)cc1)c1ccccc1)C(F)(F)F [Compound 165, N-{4-chloro-2-[(4-fluorophenoxyimino)phenylmethyl]phenyl}trifluoromethanesulfonamide] | 21% | 
CC/C(=N\OCCC(C)C)c1cc(Cl)ccc1NS(=O)(=O)C(F)(F)F [Compound 248] |  | C. felis Mortality (%) 24 h (24 h, Laboratory 2 B data): 96^B %; C. felis Mortality (%) 48 h (48 h, Laboratory 2 B data): 100%
CCC(C)O/N=C(\C)c1cccc(C)c1NS(=O)(=O)C(F)(F)F (centres unmarked) [Compound 58] | 25% | 
C/C(=N\Oc1ccc(C(F)(F)F)cc1)c1cc(Cl)ccc1NS(=O)(=O)C(F)(F)F [Compound 143] | 7% | 
CCOC(=O)N(c1ccc(Cl)cc1/C(CC)=N/OCc1ccc(Cl)cc1)S(=O)(=O)C(F)(F)F [Compound 306] |  | mortality at 1.26 µg/cm2 (24 h, single concentration 1.26 μg/cm^2 on treated glass, adult fleas, Laboratory 2 B data, read-out: Ctenocephalides felis Mortality (%) 24 h): 0%; mortality at 1.26 µg/cm2 (48 h, single concentration 1.26 μg/cm^2 on treated glass, adult fleas, Laboratory 2 B data, read-out: Ctenocephalides felis Mortality (%) 48 h): 48%
C/C(=N\OC1C=CCCC1)c1ccc(C(F)(F)F)cc1NS(=O)(=O)C(F)(F)F (centres unmarked) [Compound 238] |  | mortality at 1.26 µg/cm2, 1.26 µg/cm2 [3]: 61%; mortality at 1.26 µg/cm2, 1.26 µg/cm2 [4]: 84%
CO/N=C(\C)c1cccc(C)c1NS(=O)(=O)C(F)(F)F [Compound 42] | 72% | 
CCO/N=C(\C)c1cc(Br)ccc1NS(=O)(=O)C(F)(F)F [Compound 53] | 100% | 
CC/C(=N\Oc1ccccc1C)c1cc(Cl)ccc1NS(=O)(=O)C(F)(F)F [Compound 150] | 48% | 
C/C(=N\Oc1ccc(F)c(F)c1)c1cc(Cl)ccc1NS(=O)(=O)C(F)(F)F [Compound 147] | 4% | 
CC/C(=N\Oc1ccc(F)c(Cl)c1)c1cc(Cl)ccc1NS(=O)(=O)C(F)(F)F [Compound 146] | 11% | 

Structure (SMILES) | mortality at 1.26 µg/cm2, 1.26 µg/cm2 [2] | other results
C/C(=N\OCC#N)c1cc(Cl)ccc1NS(=O)(=O)C(F)(F)F [Compound 160] | 42% | 
CSCO/N=C(\C)c1ccccc1NS(=O)(=O)C(F)(F)F [Compound 56] | 100% | 
O=S(=O)(Nc1ccc(Cl)cc1/C(=N/OC1CCCC1)c1ccccc1)C(F)(F)F [Compound 162] | 14% | 
CSCO/N=C(\C)c1cccc(C)c1NS(=O)(=O)C(F)(F)F [Compound 54] | 93% | 
CC/C(=N\OC)c1cc(Cl)ccc1NS(=O)(=O)C(F)(F)F [Compound 34] | 100% | 
CC/C(=N\OCC#N)c1cc(Cl)ccc1NS(=O)(=O)C(F)(F)F [Compound 153] | 77% | 
CC(C)(C)/C(=N\Oc1ccc(Cl)cc1)c1cc(Cl)ccc1NS(=O)(=O)C(F)(F)F [Compound 182, N-{4-chloro-2-[1-(4-chlorophenoxyimino)2,2-dimethylpropyl]phenyl}trifluoromethanesulfonamide] | 28% | 
C/C(=N\Oc1ccc(C)cc1)c1cc(Cl)ccc1NS(=O)(=O)C(F)(F)F [Compound 141] | 41% | 
O=S(=O)(Nc1ccc(Cl)cc1/C(=N/Oc1ccc(Cl)cc1)c1ccccc1)C(F)(F)F [Compound 164, N-{4-chloro-2-[(4-chlorophenoxyimino)phenylmethyl]phenyl}trifluoromethanesulfonamide] | 19% | 
CO/N=C(\C)c1cc(Cl)ccc1NS(=O)(=O)C(F)(F)F [Compound 35] | 100% | 
CCOCN(c1ccc(Cl)cc1/C(C)=N/Oc1ccc(F)cc1)S(=O)(=O)C(F)(F)F [Compound 299] |  | mortality at 1.26 µg/cm2 [1]: 0%; mortality at 1.26 µg/cm2 [5]: 56%
CCO/N=C(\C)c1cc(Cl)ccc1NS(=O)(=O)C(F)(F)F [Compound 36] | 100% | 
CC/C(=N\OCC1CCCCC1)c1cc(Cl)ccc1N(COC(=O)C(C)(C)C)S(=O)(=O)C(F)(F)F [Compound 304] |  | mortality at 1.26 µg/cm2 [1]: 0%; mortality at 1.26 µg/cm2 [5]: 81%
C/C(=N\OCC1CCCCC1)c1cc(Cl)ccc1NS(=O)(=O)C(F)(F)F [Compound 173] | 96% | 
C/C(=N\OC(C)C)c1cccc(C)c1NS(=O)(=O)C(F)(F)F [Compound 57] | 77% | 
CCO/N=C(\C)c1cccc(OC)c1NS(=O)(=O)C(F)(F)F [Compound 41] | 45% | 
CO/N=C(\c1ccccc1)c1ccccc1NS(=O)(=O)C(F)(F)F [Compound 30] | 62% | 
CCO/N=C(\C)c1ccc(F)cc1NS(=O)(=O)C(F)(F)F [Compound 51] | 100% | 
CC/C(=N\Oc1ccc(F)c(F)c1)c1cc(Cl)ccc1NS(=O)(=O)C(F)(F)F [Compound 148] | 38% | 
O=S(=O)(Nc1ccc(Cl)cc1/C(=N/Oc1ccc(Cl)cc1)C1CCCCC1)C(F)(F)F [Compound 167] | 3% | 
CC(C)O/N=C(\c1ccccc1)c1cc(Cl)ccc1NS(=O)(=O)C(F)(F)F [Compound 176] | 52% | 
CO/N=C(\C)c1cc2c(cc1NS(=O)(=O)C(F)(F)F)OCO2 [Compound 32] | 100% | 
O=S(=O)(Nc1ccc(Cl)cc1/C(=N/OCC1CCCCC1)c1ccccc1)C(F)(F)F [Compound 180] | 8% | 
CCC/C(=N\OC1CCCCC1)c1cc(Cl)ccc1NS(=O)(=O)C(F)(F)F [Compound 192] |  | mortality at 1.26 µg/cm2, 1.26 µg/cm2 [6]: 18%; mortality at 1.26 µg/cm2, 1.26 µg/cm2 [3]: 43%
C/C(=N\OC1CCCC1)c1ccc(C(F)(F)F)cc1NS(=O)(=O)C(F)(F)F [Compound 239] |  | mortality at 1.26 µg/cm2, 1.26 µg/cm2 [3]: 86%; mortality at 1.26 µg/cm2, 1.26 µg/cm2 [4]: 100%
